Several values for one entry are separate records, joined by “and”; a condition that tells them apart may be missing. Equal entries are not always repeated. Where two headings read alike, the source gives them in different places.
Columns and labels:
[1] = target: T1, CB2 (Macaca fascicularis, UniProt G7NVV5); experiment: In vivo CB2 internalization on B-cells upon oral dosing in Cynomolgus monkeys; parameters: species or system Cynomolgus monkey
Experimental: FIG. 11: In vivo feasibility for the new CB2 flow cytometry assay to monitor pharmacodynamic response in vitro on B-cells upon oral dosing. Six healthy Cynomolgus monkeys were dosed with three different doses of an oral micro suspension of RG7774 with two animals per dose group. Blood drawn at different time points was incubated with the anti-human CB2 antibody 1/622. The expression of CB2 on the surface of B-cells was analyzed using a lineage marker mix specific for B-cells and T-cells. The B/T-cell CB2 MFI ratio was calculated and normalized to baseline. 0 μM served as 100% baseline receptor expression. For the animal Mina, blood samples could only be taken up to 1 hour after experimental start, since the animal had to be remove of the study due to a rectal prolapse.
FIG. 12: Single dose in vivo study monitoring the pharmacodynomic effect of RG7774 on CB2 expression on B-cells in Cynomolgus upon oral dosing. Three healthy cynomolgus monkeys were dosed with 100 mg/kg of the CB2 agonist RG7774. The blood draw at different time points was followed by the incubation with the anti-human CB2 antibody 1/622. The expression of CB2 on the surface of B-cells was analyzed using a lineage marker mix specific for B-cells and T-cells. The B/T-cell CB2 MFI ratio was calculated and normalized to baseline. 0 μM served as 100% baseline receptor expression. […] Due to a storage effect of the antibody working dilution (5 μg/sample) of the anti-human CB2 Ab 1/622 the 4 and 7 hours' time point have been excluded. The working dilution of this antibody is only stable for 2 hours on ice.
The feasibility of applying the newly developed CB2 flow cytometry assay as an assay to monitor pharmacodynamic response to oral doses of RG7774 was evaluated in three groups of two Cynomolgus monkeys. Upon oral administration of three different single doses of a micro suspension of 0.5, 5 and 100 mg/kg RG7774 respectively, blood samples from all animals were taken at the selected time points: 0 (pre-dose) and 0.25, 0.5, 1, 2, 4, 7 and 24 h post dosing and subjected to the CB2 flow cytometry analysis (FIG. 11).
In this in vivo cyno study three cynomolgus monkeys were orally dosed with 100 mg/kg of RG7774. Blood sampling for TE-assay was performed at selected time points: −96, −24 (both time points not shown), 0 (predose) and 0.25, 0.5, 1, 2, 4, 7, 24, 31, 48 and 72 hours post-dosing (FIG. 12).

[2] = target: T1, CB2; experiment: In vitro CB2 internalization flow cytometry assay in Cynomolgus whole blood; assay type: cell-based, Cynomolgus monkey
Experimental: FIG. 10: In vitro IC50 determination of CB2 internalization on B-cells in whole blood from Cynomolgus monkeys. Cynomolgus whole blood was incubated with RG7774 for 1 hour at 37° C. followed by incubation with the anti-human CB2 antibody 1/622. The expression of CB2 on the surface of B-cells was analyzed using a lineage marker mix specific for B-cells and T-cells. The B/T-cell CB2 MFI ratio was calculated and normalized to baseline. 0 μM was set as 100% baseline receptor expression.
In order to establish whether the CB2 surface assay is cross-reactive in Cynomolgus monkey, blood obtained from five different healthy Cynomolgus monkey has been tested in vitro and the individual IC50 values for RG7774 and maximum reduction of CB2 surface expression in whole blood determined using 8 different compound concentrations in duplicates (FIG. 10, Table 8).

[3] = target: T2, CB2 (Homo sapiens, UniProt P34972); experiment: CB2 internalization flow cytometry assay in whole blood of diabetic patients and matched healthy participants; assay type: cell-based
T2 construct: measured in whole blood samples from nine different healthy human volunteers of working-age; endogenous in cells; host or cells: B-cells (and basophils and other leukocytes) in human whole blood
T2 sequence (P34972 whole entry): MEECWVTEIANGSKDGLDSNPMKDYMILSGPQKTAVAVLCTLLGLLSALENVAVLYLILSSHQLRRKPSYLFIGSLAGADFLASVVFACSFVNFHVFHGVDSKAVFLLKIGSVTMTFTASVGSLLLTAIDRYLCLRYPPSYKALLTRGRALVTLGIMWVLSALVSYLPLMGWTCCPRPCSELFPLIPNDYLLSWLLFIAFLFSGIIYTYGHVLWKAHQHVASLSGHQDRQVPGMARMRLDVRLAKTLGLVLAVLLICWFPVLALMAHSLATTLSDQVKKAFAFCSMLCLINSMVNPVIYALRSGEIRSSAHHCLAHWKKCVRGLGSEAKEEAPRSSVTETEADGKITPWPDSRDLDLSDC
Excerpt: FIGS. 9A-9E: IC50 value determination for RG7774 in different cell sub-populations in whole blood of diabetic patients and matched healthy participants. Median Fluorescence intensity (MFI)±SD of CB2 surface expression in diabetic patients (open dots, dotted line) and age-matched healthy participants (closed dots, continuous line) after exposure to increasing concentrations of RG7774. Mean MFI for individual data points is based on duplicate measures FIG. 9A: B-cells (CD45^+ CD3^− CD14^− CD19^+). FIG. 9B: Basophils (CD45^+ CD3^− CD14^− CD19^− CD193^+ IgE^+). FIG. 9C: Monocytes (CD45^+ CD3^− CD14^+). FIG. 9D: T-cells (CD45^+ CD3^+ CD14^−). FIG. 9E: NK cells (CD45^+ CD3^− CD14^− CD19^− CD193^− IgE^− CD16^+ CD56^+).
In order to understand, the exposure-response relationship for a drug-induced CB2 internalization on blood cell populations, in particular on B-cells and Basophils, whole blood of nine different diabetic type 1 and 2 patients and eight demographically and age-matched healthy participants were treated with 8 compound concentrations in duplicates to determine the IC50 of RG7774.
Human whole blood from diabetic patients and age-matched healthy participants was incubated with RG7774 for 1 hour at 37° C. followed by incubation with the anti-human CB2 Ab 1/622. The expression of CB2 on the surface of the different blood cell types was analyzed using the lineage marker mix specific for B-cells, Basophils, T-cells, NK-cells and Monocytes. MFI values at 0 μM RG7774 were set as 100% baseline receptor expression for each cell type.

[4] = individual donors, DM type 1, value in parentheses = excluded outlier subject
[5] = individual donors, matched healthy participants (HP)

T1 sequence (G7NVV5 1-360): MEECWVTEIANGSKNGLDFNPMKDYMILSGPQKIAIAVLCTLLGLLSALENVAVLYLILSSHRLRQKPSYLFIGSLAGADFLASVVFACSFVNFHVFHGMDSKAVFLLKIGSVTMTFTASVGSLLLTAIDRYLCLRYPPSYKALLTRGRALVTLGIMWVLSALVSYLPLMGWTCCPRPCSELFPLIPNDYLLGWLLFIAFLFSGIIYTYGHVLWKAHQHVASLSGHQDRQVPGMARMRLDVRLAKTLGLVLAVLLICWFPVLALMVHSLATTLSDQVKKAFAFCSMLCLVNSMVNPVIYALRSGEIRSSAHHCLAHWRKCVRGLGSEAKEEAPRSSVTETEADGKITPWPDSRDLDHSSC

Cn1nnnc1Cn1nnc2c(N3CC[C@H](O)C3)nc(C(C)(C)C)nc21 [RG7774, (S)-1-[5-tert-Butyl-3-(1-methyl-1H-tetrazol-5-ylmethyl)-3H-[1,2,3]triazolo [4,5-d]pyrimidin-7-yl]-pyrrolidin-3-ol]
onset of pharmacodynamic effect on CB2 surface expression on B-cells ([1]; 100 mg/kg oral): ≤ 15 min
duration of reduction of CB2 expression on B-cells ([1]; single oral doses 0.5, 5 and 100 mg/kg): around 24 hours
reduction relative to individual baseline CB2 expression on B-cells ([1]; single oral doses 0.5, 5 and 100 mg/kg micro suspension): dose dependent reduction
responder status in vivo ([1]; three cynomolgus monkeys, 100 mg/kg oral): One out of three cynos is a non-responder
reduction of the CB2 expression ([2]; T-cells, Monocytes and Granulocytes (data not shown)): has not been observed
responder status in vitro ([2]; five Cynomolgus monkeys): One Cynomolgus out of five is a non-responder
Emax ([3]; Basophils, both groups on average, read-out: Emax): ~60%
Emax ([3]; DM (all) (n = 8), read-out: Mean Emax (Basophils) ± SD per diagnosis): 60.4 ± 9.5%
Emax ([3]; DM type 1 (n = 3), read-out: Mean Emax (B-cells) ± SD per diagnosis): 60.5 ± 2.8%
Emax ([3]; DM type 1 (n = 3), read-out: Mean Emax (Basophils) ± SD per diagnosis): 65.9 ± 2.2%
Emax ([3]; DM type 2 (n = 5), read-out: Mean Emax (B-cells) ± SD per diagnosis): 53.6 ± 14.5%
Emax ([3]; DM type 2 (n = 5), read-out: Mean Emax (Basophils) ± SD per diagnosis): 57 ± 10.9%
Fold change vs HPs of mean IC50 (CB2 on B-cells) ([3]; DM vs working-age healthy participants): 1.8x
IC50 ([3]; Individual IC50 (B-cells), individual donors, DM type 1, value in parentheses = excluded outlier subject): 225 nM and 126 nM and 1060 nM
IC50 ([3]; Individual IC50 (B-cells), individual donors, DM type 2): 335 nM and 57.9 nM
IC50 ([3]; Individual IC50 (Basophils), individual donors, DM type 1, value in parentheses = excluded outlier subject): 72 nM and 38.1 nM and 31.7 nM and 154 nM
IC50 ([3]; Individual IC50 (Basophils), individual donors, DM type 2): 61 nM and 25.7 nM and 54.6 nM and 22.9 nM and 44.4 nM
IC50 ([3]; Individual IC50 (Basophils), individual donors, matched healthy participants (HP)): 22.1 nM and 23.5 nM and 26.5 nM and 58.1 nM and 55.8 nM and 77.3 nM and 80.1 nM
Emax ([3]; Matched HPs (n = 8), read-out: Mean Emax (Basophils) ± SD per diagnosis): 59.3 ± 4.5%
Fold change vs HPs of mean IC50 (CB2 on B-cells) ([3]; Matched Healthy vs working-age healthy participants): 2.6 x
IC50 ([3]; Mean IC50 (Basophils) ± SD per diagnosis, DM (all) (n = 8)): 43.8 ± 17.5 nM
IC50 ([3]; Mean IC50 (Basophils) ± SD per diagnosis, DM type 1 (n = 3)): 47.2 ± 21.7 nM
IC50 ([3]; Mean IC50 (Basophils) ± SD per diagnosis, DM type 2 (n = 5)): 41.7 ± 17 nM
IC50 ([3]; Mean IC50 (Basophils) ± SD per diagnosis, Matched HPs (n = 8)): 57.2 ± 32.8 nM
fold higher exposure to achieve half maximum internalization of the CB2 on B-cells ([3]; diabetic patients and matched healthy participants relative to working-age healthy participants): 2-3 fold
Individual Emax (B-cells) [3, 4]: 62.79% and (59.35) %
Individual Emax (Basophils) [3, 4]: 68.43% and 64.41% and (57.09) %
Emax ([3]; individual donors, DM type 1, value in parentheses = excluded outlier subject, read-out: Individual Emax (B-cells)): 62%
Emax ([3]; individual donors, DM type 1, value in parentheses = excluded outlier subject, read-out: Individual Emax (Basophils)): 64.9%
Individual Emax (B-cells) ([3]; individual donors, DM type 2): 34.08% and 74.13% and 50.35% and 58.24% and 51.25%
Individual Emax (Basophils) ([3]; individual donors, DM type 2): 41.64% and 62.91% and 54.19% and 70.94%
Individual Emax (B-cells) [3, 5]: 52.88% and 51.18% and 52.64% and 70.18% and 52.40% and 60.22% and 49.16% and 57.11%
Individual Emax (Basophils) [3, 5]: 64.04% and 57.73% and 54% and 58.78% and 62.7%
Emax ([3]; individual donors, matched healthy participants (HP), read-out: Individual Emax (Basophils)): 66.1%

Reference: patent US20260029420A1, “ANTI-CB2 ANTIBODIES AND THEIR USE IN A FLOW CYTOMETRY ASSAY TO MEASURE CELL SURFACE CB2 EXPRESSION” (Hoffmann-La Roche Inc., priority 2022, published 2026)
